Experimental data from ChEMBL document CHEMBL1201862, “PubChem BioAssay data set” (2004).
Activity calls are given as the source filed them.

Tests used:
[1] = biological target: T1, Replicative DNA helicase DnaB (Mycobacterium tuberculosis, UniProt P9WMR3); assay: DnaB intein splicing inhibitors, dose response, biochemical, cell-free fluorescence (AID 449749); assay type: functional
T1 sequence (P9WMR3 whole entry): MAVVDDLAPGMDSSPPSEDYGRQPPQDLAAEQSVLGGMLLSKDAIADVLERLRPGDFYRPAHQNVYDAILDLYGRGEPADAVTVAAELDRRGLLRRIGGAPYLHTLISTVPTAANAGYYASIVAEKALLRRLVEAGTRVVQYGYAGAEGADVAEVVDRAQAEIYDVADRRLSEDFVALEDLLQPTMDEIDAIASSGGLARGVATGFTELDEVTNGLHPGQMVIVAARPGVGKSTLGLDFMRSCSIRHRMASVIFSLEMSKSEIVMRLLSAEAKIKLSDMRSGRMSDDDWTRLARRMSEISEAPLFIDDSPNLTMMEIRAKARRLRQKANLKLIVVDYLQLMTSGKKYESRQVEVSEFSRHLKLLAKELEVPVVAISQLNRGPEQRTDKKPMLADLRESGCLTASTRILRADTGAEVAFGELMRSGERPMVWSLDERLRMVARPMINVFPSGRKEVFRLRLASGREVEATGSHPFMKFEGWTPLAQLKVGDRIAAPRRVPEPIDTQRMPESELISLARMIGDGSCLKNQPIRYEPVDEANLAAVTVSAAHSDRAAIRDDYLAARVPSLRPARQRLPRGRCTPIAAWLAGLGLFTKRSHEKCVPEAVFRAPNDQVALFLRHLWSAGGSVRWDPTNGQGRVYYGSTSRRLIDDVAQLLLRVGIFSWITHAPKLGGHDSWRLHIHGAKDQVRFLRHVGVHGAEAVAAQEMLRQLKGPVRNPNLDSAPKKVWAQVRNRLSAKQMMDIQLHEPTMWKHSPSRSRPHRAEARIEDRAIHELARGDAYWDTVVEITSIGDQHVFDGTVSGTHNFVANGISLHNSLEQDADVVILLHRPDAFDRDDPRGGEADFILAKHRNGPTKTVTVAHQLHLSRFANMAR

[2] = biological target: T2, Protein RecA (Mycobacterium tuberculosis, UniProt P9WHJ3); assay: Fluorescence Cell-Free Homogeneous Dose Retest to Identify Inhibitors of RecA-Intein Splicing Activity. [Related pubchem assays (depositor defined):AID2097, AID2223, AID489010, AID492950]; assay type: functional
T2 sequence (P9WHJ3 whole entry): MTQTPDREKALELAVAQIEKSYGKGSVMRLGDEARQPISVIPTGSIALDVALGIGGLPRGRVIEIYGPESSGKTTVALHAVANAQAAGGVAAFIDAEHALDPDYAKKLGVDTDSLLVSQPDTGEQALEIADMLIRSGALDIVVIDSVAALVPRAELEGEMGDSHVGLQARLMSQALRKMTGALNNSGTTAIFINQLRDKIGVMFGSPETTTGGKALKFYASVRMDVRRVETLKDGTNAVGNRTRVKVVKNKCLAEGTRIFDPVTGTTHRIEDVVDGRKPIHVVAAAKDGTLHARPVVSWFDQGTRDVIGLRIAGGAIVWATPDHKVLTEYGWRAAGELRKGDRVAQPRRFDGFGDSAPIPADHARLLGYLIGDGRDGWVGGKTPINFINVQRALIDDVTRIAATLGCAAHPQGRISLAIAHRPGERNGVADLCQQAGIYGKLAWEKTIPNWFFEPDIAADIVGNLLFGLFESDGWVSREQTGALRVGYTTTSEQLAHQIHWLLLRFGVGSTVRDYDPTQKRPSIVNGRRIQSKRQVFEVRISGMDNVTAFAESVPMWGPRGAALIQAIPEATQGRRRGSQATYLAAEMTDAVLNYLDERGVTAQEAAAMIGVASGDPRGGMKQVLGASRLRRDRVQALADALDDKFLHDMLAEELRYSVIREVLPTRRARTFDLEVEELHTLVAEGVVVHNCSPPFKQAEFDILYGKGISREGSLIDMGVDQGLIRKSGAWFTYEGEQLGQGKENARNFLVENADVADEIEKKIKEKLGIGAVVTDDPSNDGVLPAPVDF

[3] = biological target: T3, Heat shock factor protein 1 (Mus musculus, UniProt P38532); assay: inhibition of MG132-induced HSE-luciferase signal, confirmation, cell-based, NIH3T3, luminescence, dose retest (AID 2382); assay type: functional;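 also: NIH3T3 fibroblasts with HSF1-driven luciferase reporter stressed by proteasome inhibitor MG132; luminescence from HSF1-driven luciferase expression after 8 hours of MG132 stress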
T3 sequence (P38532 whole entry): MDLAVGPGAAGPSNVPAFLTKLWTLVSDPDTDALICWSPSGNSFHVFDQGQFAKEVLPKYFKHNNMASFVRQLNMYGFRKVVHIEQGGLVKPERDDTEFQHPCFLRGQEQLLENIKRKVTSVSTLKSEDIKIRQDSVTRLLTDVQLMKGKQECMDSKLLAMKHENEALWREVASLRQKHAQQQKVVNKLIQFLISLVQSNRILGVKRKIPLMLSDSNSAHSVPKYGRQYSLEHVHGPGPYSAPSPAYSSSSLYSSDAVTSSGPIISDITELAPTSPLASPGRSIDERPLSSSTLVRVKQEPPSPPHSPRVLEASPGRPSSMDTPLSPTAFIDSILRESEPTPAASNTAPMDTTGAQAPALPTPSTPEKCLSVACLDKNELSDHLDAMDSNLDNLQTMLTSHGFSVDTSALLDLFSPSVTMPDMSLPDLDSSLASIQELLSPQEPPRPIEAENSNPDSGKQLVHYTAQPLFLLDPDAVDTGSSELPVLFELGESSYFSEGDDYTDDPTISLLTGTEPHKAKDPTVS

[4] = biological target: Cytochrome P450 3A4 (Homo sapiens, UniProt P08684);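 also: CYP3A4 tested as one member of a cytochrome P450 panel screen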
Sequence of Cytochrome P450 3A4 (P08684 whole entry): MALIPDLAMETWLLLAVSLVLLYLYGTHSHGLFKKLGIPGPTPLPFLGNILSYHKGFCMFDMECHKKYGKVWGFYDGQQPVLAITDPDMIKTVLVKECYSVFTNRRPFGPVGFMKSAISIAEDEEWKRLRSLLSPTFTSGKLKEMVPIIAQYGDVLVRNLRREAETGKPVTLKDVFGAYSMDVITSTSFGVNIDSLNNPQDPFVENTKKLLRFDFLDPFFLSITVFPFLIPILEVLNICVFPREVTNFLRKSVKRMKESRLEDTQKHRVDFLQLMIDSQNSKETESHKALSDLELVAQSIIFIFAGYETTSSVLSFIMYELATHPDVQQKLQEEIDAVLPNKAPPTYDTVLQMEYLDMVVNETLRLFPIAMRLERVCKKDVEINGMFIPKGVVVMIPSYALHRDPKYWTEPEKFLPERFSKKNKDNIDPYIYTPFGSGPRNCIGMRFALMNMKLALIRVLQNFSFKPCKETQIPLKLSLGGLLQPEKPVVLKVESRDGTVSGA

Structure (SMILES) | AC50 [1] | EC50 [2] | EC50 [3] | AC50 [4]
Cc1ccc(-c2csc(NC(=O)CSC3=NCCS3)n2)cc1 | 14.6 µM (active) | 3.83 µM (active) |  | 
FC(F)Oc1ccc(NC(S)=NNc2ccnc3cc(Cl)ccc23)cc1 |  |  | > 195 µM (not active) | 
Cc1ccc(-n2nc(C)c3c2OC(N)=C(C#N)C3c2ccccc2F)cc1 (stereo unspecified) | 5.37 µM (active) | 24 µM (inconclusive) |  | 
COc1cccc(/C=C(\C#N)c2nc3ccccc3[nH]2)c1OCC(=O)O |  |  | > 195 µM (not active) | 
O=C(Nc1cccc(S(=O)(=O)N2CCOCC2)c1)c1ccccn1 |  |  | > 195 µM (not active) | 
COCCN(C(S)=Nc1c(C)cccc1C)C(C)c1cccnc1 (stereo unspecified) |  |  | > 195 µM (not active) | 
CN(CC(=O)Nc1cccc(F)c1)CC(=O)Nc1cccc(S(N)(=O)=O)c1 |  |  | > 195 µM (not active) | 
COc1ccc(CC(NC(C)=O)C(=O)NC2CCN(C(=O)c3ccc(OC)c(OC)c3)CC2)cc1OC (stereo unspecified) |  |  | > 195 µM (not active) | 
Cc1nn(C)c(Cl)c1CN1CCC(n2nccc2NC(=O)C2CCCC2)CC1 |  |  | > 195 µM (not active) | 
NC1=NN(c2cccc(C(=O)O)c2)C(=O)C1 | 20 µM (active) | 23.7 µM (inconclusive) |  | 
CN1C(=O)c2ccccc2Sc2ccc(C(=O)N3CCC4(CC3)OCCO4)cc21 |  |  | > 195 µM (not active) | 20 µM (inconclusive)
COc1ccccc1CN1CC(C(=O)NCCN2CCNC2=O)CCC1=O (stereo unspecified) |  |  | 9.48 µM (active) | 
CCCCn1c(N)c(N(CC(C)C)C(=O)c2cccc(S(=O)(=O)N3CCCCC3)c2)c(=O)[nH]c1=O |  |  | > 195 µM (not active) | 
Cc1n[nH]c2c1C(c1ccc3c(c1)OCO3)C(C#N)=C(N)O2 (stereo unspecified) | 15.6 µM (active) | 6.16 µM (active) |  | 
CCN(C(=O)COC(=O)/C=C/c1ccccc1)C1CCCCC1 |  |  | > 195 µM (not active) | 
Cn1c(=O)n(C)c2cc(NS(C)(=O)=O)ccc21 |  |  | > 195 µM (not active) | 
CCN(CC)S(=O)(=O)c1ccc(C)c(NC(=O)CNCc2ccccc2OC)c1 |  |  | > 195 µM (not active) | 
Cc1ccc(S(=O)(=O)N2CCN(C(=O)c3ccccc3Cc3ccccc3)CC2)c(C)c1 | 2.54 µM (active) | 208 µM (active) |  | 
CC1=NN(c2ccccc2)C(=O)/C1=C\c1cn(CCC#N)nc1-c1ccc(Cl)cc1 | 3.78 µM (active) | 2.77 µM (active) |  | 
CC(C(=O)NC1CC(C)(C)NC(C)(C)C1)c1ccc([N+](=O)[O-])cc1 (stereo unspecified) |  |  | > 195 µM (not active) | 
CC(C)N=C(S)NC1(C)CCS(=O)(=O)C1 (stereo unspecified) | > 380 µM (inactive) | > 380 µM (inactive) |  | 
O=C1CC(CC(=O)N/N=C/c2ccccc2[N+](=O)[O-])=NN1 | 2.19 µM (active) | 1.85 µM (active) |  | 
